# Article PMC4245125, “Pharmacological and Behavioral Characterization of D-473, an Orally Active Triple Reuptake Inhibitor Targeting Dopamine, Serotonin and Norepinephrine Transporters” (PLoS ONE, 2014)
# Tests used:
# D2 = target: T1, D2 (Homo sapiens, UniProt P14416); assay: NIMH PDSP receptor binding, D2; details: [3H]N-methylspiperone, read-out: % Inhibition of Binding at 10 µM D-473
# T1 construct: purchased NIMH PDSP
# D3 = target: T2, D3 (Homo sapiens, UniProt P35462); assay: NIMH PDSP receptor binding, D3; details: [3H]N-methylspiperone, read-out: % Inhibition of Binding at 10 µM D-473
# T2 construct: purchased NIMH PDSP
# T2 sequence (P35462 whole entry): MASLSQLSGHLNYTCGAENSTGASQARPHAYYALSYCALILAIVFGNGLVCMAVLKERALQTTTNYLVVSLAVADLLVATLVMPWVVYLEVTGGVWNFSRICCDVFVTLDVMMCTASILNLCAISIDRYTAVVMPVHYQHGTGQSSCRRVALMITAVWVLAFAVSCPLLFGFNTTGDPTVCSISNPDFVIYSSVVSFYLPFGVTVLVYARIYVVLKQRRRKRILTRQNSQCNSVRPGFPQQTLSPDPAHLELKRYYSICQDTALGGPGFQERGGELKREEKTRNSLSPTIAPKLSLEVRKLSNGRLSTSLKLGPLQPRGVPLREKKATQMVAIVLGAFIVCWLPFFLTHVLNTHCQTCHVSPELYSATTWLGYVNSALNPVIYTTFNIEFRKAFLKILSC
# 5HT1a = target: T3, 5HT1a (Homo sapiens, UniProt P08908); assay: NIMH PDSP receptor binding, 5HT1a; details: [3H]8-OH-DPAT, read-out: % Inhibition of Binding at 10 µM D-473
# T3 construct: purchased NIMH PDSP
# T3 sequence (P08908 whole entry): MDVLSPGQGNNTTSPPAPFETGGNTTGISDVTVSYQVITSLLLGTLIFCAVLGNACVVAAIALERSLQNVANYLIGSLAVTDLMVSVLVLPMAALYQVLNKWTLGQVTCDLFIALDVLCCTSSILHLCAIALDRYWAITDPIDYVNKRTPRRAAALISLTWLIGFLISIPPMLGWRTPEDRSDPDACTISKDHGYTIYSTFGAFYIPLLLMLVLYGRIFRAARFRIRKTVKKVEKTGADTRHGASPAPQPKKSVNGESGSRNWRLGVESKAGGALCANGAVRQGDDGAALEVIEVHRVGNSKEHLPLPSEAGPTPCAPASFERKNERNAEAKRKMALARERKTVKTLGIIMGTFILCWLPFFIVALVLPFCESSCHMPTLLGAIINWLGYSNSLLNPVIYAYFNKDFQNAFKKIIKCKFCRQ
# 5HT2a = target: T4, 5HT2a (Homo sapiens, UniProt P28223); assay: NIMH PDSP receptor binding, 5HT2a; details: [3H]ketanserin, read-out: % Inhibition of Binding at 10 µM D-473
# T4 construct: purchased NIMH PDSP
# 5HT2c = target: T5, 5HT2c (Homo sapiens, UniProt P28335); assay: NIMH PDSP receptor binding, 5HT2c; details: [3H]Mesulergine, read-out: % Inhibition of Binding at 10 µM D-473
# T5 construct: purchased NIMH PDSP
# T5 sequence (P28335 33-458): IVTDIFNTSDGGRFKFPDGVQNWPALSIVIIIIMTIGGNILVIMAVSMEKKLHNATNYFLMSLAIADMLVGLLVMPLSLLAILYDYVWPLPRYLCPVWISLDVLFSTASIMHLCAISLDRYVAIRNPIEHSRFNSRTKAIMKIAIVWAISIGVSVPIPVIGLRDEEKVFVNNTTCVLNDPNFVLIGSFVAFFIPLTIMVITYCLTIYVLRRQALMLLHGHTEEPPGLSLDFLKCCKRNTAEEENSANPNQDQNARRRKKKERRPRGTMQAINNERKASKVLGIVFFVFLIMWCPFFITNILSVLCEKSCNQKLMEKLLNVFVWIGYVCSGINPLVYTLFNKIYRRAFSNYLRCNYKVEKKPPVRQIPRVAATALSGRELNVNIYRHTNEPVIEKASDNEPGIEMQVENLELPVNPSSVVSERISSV
# 5HT3 = target: T6, 5HT3 (Homo sapiens, UniProt P46098); assay: NIMH PDSP receptor binding, 5HT3; details: [3H] LY 278,584, read-out: % Inhibition of Binding at 10 µM D-473
# T6 construct: purchased NIMH PDSP
# T6 sequence (P46098 24-478): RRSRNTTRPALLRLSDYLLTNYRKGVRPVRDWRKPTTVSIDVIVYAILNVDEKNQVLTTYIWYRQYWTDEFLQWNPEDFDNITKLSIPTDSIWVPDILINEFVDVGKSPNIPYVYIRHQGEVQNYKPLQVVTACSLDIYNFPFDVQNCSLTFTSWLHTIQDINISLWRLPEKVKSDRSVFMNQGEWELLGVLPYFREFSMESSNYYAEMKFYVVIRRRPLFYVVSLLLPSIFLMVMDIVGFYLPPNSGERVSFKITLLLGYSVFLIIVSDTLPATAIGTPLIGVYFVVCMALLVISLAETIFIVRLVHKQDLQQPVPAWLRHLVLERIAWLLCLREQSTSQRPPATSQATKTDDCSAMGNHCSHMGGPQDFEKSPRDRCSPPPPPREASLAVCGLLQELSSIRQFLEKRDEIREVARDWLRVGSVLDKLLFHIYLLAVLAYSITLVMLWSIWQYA
# 5HT5a = target: T7, 5HT5a (Homo sapiens, UniProt P47898); assay: NIMH PDSP receptor binding, 5HT5a; details: [3H]LSD, read-out: % Inhibition of Binding at 10 µM D-473
# T7 construct: purchased NIMH PDSP
# T7 sequence (P47898 whole entry): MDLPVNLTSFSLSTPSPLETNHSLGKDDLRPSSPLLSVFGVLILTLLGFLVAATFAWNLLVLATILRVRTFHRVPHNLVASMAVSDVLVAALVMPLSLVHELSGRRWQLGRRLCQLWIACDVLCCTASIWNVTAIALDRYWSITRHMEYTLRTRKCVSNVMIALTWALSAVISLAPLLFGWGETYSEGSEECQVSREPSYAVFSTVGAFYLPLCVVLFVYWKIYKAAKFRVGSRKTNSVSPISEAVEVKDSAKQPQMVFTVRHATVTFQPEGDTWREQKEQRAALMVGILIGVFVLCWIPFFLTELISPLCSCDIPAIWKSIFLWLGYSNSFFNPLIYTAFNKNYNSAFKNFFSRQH
# 5HT6 = target: T8, 5HT6 (Homo sapiens, UniProt P50406); assay: NIMH PDSP receptor binding, 5HT6; details: [3H]LSD, read-out: % Inhibition of Binding at 10 µM D-473
# T8 construct: purchased NIMH PDSP
# Alpha1A = target: T9, Alpha1A (Homo sapiens, UniProt P35348); assay: NIMH PDSP receptor binding, Alpha1A; details: [3H]Prazosin, read-out: % Inhibition of Binding at 10 µM D-473
# T9 construct: purchased NIMH PDSP
# T9 sequence (P35348 whole entry): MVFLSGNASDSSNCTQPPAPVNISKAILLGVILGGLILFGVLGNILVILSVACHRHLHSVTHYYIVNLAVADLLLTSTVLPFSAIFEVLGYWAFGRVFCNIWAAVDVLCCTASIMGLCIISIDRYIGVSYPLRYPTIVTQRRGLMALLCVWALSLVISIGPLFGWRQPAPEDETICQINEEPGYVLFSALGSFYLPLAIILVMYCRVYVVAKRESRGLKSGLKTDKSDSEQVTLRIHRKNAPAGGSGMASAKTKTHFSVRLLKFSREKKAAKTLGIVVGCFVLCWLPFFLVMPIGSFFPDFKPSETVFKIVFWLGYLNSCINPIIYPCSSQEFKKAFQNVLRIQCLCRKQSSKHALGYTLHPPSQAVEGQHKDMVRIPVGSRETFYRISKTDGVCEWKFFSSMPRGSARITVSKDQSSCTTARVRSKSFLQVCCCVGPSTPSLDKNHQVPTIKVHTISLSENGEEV
# Alpha2B = target: T10, Alpha2B (Homo sapiens, UniProt P18089); assay: NIMH PDSP receptor binding, Alpha2B; details: [3H]Clonidine, read-out: % Inhibition of Binding at 10 µM D-473
# T10 construct: purchased NIMH PDSP
# T10 sequence (P18089 whole entry): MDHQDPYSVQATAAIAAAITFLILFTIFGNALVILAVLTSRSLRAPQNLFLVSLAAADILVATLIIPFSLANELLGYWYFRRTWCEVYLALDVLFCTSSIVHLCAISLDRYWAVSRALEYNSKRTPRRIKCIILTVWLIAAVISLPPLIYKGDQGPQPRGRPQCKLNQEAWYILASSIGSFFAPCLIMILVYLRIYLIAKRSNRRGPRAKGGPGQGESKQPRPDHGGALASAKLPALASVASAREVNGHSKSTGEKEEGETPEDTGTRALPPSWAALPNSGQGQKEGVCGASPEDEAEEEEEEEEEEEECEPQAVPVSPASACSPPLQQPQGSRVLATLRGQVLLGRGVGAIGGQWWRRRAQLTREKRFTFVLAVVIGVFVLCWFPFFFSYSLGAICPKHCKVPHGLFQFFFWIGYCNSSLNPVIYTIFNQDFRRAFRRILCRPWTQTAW
# BZP Rat Brain Site = assay: NIMH PDSP receptor binding, BZP Rat Brain Site; details: 3H-Flunitrazepam
# H1 = target: T11, H1 (Homo sapiens, UniProt P35367); assay: NIMH PDSP receptor binding, H1; details: [3H]Pyrilamine, read-out: % Inhibition of Binding at 10 µM D-473
# T11 construct: purchased NIMH PDSP
# T11 sequence (P35367 whole entry): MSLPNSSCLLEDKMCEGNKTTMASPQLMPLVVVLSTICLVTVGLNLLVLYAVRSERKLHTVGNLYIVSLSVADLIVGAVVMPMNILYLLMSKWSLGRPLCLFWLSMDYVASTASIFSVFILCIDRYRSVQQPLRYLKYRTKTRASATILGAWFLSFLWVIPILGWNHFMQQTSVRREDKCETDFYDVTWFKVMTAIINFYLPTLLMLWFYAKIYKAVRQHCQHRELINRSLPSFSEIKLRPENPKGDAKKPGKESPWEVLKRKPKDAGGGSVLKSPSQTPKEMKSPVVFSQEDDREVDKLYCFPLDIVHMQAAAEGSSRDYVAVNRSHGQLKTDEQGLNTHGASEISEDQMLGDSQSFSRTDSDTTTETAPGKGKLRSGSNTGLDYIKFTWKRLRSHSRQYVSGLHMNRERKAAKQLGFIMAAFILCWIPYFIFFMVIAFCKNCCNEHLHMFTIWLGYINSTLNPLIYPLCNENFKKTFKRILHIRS
# M1 = target: T12, M1 (Homo sapiens, UniProt P11229); assay: biochemical; details: read-out: % Inhibition of Binding at 10 µM D-473
# T12 construct: purchased NIMH PDSP
# T12 sequence (P11229 whole entry): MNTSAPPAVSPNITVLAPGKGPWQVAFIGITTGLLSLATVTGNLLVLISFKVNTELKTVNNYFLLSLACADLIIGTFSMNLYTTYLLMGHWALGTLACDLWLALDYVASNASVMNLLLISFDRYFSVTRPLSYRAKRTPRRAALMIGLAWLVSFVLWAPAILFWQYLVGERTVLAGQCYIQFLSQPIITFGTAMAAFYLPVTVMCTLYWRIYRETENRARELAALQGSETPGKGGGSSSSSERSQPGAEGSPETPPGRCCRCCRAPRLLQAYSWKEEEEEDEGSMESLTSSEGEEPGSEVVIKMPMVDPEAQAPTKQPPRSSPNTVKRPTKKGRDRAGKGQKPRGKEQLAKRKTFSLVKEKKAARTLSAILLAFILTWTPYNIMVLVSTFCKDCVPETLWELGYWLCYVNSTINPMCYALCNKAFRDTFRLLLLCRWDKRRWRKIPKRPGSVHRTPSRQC
# M5 = target: T13, M5 (Homo sapiens, UniProt P08912); assay: biochemical; details: read-out: % Inhibition of Binding at 10 µM D-473
# T13 construct: purchased NIMH PDSP
# T13 sequence (P08912 whole entry): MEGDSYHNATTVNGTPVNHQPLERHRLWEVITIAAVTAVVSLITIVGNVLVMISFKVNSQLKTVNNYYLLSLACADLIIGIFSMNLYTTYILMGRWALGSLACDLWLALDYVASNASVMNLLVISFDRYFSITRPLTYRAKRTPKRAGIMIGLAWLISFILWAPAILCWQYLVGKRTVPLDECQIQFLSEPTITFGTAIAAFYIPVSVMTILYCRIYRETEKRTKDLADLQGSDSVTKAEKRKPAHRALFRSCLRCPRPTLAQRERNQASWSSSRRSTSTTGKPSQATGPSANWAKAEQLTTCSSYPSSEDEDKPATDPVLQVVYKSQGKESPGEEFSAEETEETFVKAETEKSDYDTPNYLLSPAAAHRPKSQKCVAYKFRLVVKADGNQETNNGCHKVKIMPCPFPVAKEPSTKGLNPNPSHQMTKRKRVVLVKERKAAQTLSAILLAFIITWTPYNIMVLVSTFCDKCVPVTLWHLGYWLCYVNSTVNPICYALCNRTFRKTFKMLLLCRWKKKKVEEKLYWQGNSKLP
# [1] = test system: extracellular DA, 5-HT, NE and metabolites in the medial prefrontal cortex (mPFC); assay: Microdialysis in medial prefrontal cortex, monoamines and metabolites; type: in vivo, rat; details: 10 mg/kg i.p.
# Description: Adult male Sprague-Dawley rats (Harlan, Indianapolis, IN) weighing between 250 and 350 g were used for all experiments. Rats were housed in a temperature and humidity controlled room with 12 hr light/dark cycles with food and water available ad libitum. Adequate measures were taken to prevent animal pain and discomfort. All animals were treated as approved by the University of Michigan Unit for Laboratory Animal Medicine (ULAM) and in accordance with the National Institute of Health (NIH) Guidelines for the Care and Use of Laboratory Animals.
# Rats were anesthetized with using an isoflurane vaporizer that was interfaced to a model 963 Ultra Precise stereotaxic instrument with 0.1 mm resolution (David Kopf Instruments, Tujunga, CA). Concentrically designed microdialysis probes (1 mm dialyzing length) were built in house then implanted bilaterally into the dorsal lateral striatum (DLS) and the medial prefrontal cortex (mPFC) according to the following coordinates from bregma and dura (in mm): AP +1, ML +3.3, DV –5.7 and AP +3, ML −0.5, DV −5, respectively (Paxinos and Watson, 2007). […] 1 mm probes were selected for higher spatial resolution and lower tissue damage compared to larger probes. Probes were secured to the skull by acrylic dental cement and metallic screws. Following surgery, rats were allowed to recover and experiments were run 24 hr after probe implantation. Microdialysis probes were flushed at a flow rate of 2 µl/min with aCSF (composition in mM: CaCl2 1.2; KCl 2.7, NaCl 148 and MgCl2 0.85) for 2 hr using a Chemyx Fusion 400 syringe pump (Chemyx, Stafford, TX). Perfusion flow rate was then reduced to 1 µl/min and samples were collected every 10 min. Baseline values were collected for 50 min and then the drug D-473 was injected (10 mg/kg, i.p.) and samples were collected for an additional 2 h. When experiments were completed, animals were euthanized and then brains were extracted and frozen at −80°C until histology.
# Dopamine, norepinephrine (NE), serotonin (5HT), DOPAC, homovanillic acid (HVA) and 5-hydroxyindole acetic acid (5-HIAA) were analyzed using a benozyolation derivitization LC-MS method recently described by our laboratory. Briefly, 10 µl dialysate samples were derivatized by adding 5 µl of 100 mM sodium tetraborate, 5 µl of 2% benzoyl chloride in acetonitrile, and then 5 µl of a stable ^13C benzoylated isotope internal standard mixture was then added to improve quantitation. A Thermo Fisher Accela UHPLC (Waltham, MA) system automatically injected 5 µl of the sample onto a Waters (Milford, MA) HSS T3 reverse phase HPLC column (1 mm X 100 mm, 1.8 µm). Mobile phase A consisted of 10 mM ammonium formate and 0.15% formic acid. Mobile phase B was pure acetonitrile. Analytes were detected by an Thermo Fisher TSQ Quantum Ultra triple quadrupole mass spectrometer operating in multiple reaction monitoring (MRM) mode. The assay limits of detection were (nM in dialysate) for DA, 0.3; NE, 0.2; 5HT, 0.1; HVA, 0.5; DOPAC, 2; and 5HIAA, 5. […] Average standard deviation in above basal levels was 18%.
# All neurochemical data were transformed into percent baseline with baseline values all averaging 100%. Statistical analysis was performed by t-test analysis of every point relative to baseline values (i.e. 100%) using Prism 6 (Graphpad Software Inc, La Jolla, CA). P values <0.05 were considered to be statistically significant.
# [2] = test system: CNS GPCR receptors and ion channels; assay: CNS broad receptors screening, summary statements by receptor family; type: binding
# T1 sequence (P14416 whole entry): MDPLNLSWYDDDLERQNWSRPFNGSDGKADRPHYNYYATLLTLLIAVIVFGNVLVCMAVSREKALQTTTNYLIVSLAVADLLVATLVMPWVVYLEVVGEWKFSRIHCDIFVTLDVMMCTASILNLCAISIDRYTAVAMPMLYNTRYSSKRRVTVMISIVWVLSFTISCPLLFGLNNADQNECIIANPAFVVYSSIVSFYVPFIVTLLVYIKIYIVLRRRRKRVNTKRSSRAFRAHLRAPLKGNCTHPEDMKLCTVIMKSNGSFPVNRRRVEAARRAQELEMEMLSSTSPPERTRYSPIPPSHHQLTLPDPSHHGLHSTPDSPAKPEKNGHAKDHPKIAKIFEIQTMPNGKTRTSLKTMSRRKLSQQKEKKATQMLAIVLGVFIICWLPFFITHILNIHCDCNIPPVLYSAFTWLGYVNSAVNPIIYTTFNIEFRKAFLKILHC
smiles,measurement,setting,value
"COc1ccc(CN[C@@H]2CO[C@H](C(c3ccc(F)cc3)c3ccc(F)cc3)C[C@H]2O)cc1 [Compound D-473, (2S,4R,5R)-2-(bis(4-fluorophenyl)methyl)-5-((4-methoxybenzyl)amino)tetrahydro-2H-pyran-4-ol]",inhibition at 10 µM,D2,42.9%
same,inhibition at 10 µM,D3,30.8%
same,inhibition at 10 µM,5HT1a,35.4%
same,inhibition at 10 µM,5HT2a,16.3%
same,inhibition at 10 µM,5HT2c,45.4%
same,inhibition at 10 µM,5HT3,3.5%
same,inhibition at 10 µM,5HT5a,19.5%
same,inhibition at 10 µM,5HT6,-11.4%
same,inhibition at 10 µM,Alpha1A,23.6%
same,inhibition at 10 µM,Alpha2B,25.4%
same,% Inhibition of Binding at 10 µM D-473,BZP Rat Brain Site,−3%
same,inhibition at 10 µM,H1,2.8%
same,inhibition at 10 µM,M1,15%
same,inhibition at 10 µM,M5,3.2%
same,Reductions in dialysate DOPAC,"[1]; Figure 8, region not specified",up to 35%
same,Change in the level of 5-HIAA,[1]; region not specified (mPFC and DLS studied),did not observe any change
same,Effect on HVA,[1]; mPFC,lack of effect
same,Increase of 5-HT,[1]; mPFC,> 3 fold
same,Increase of DA,[1]; mPFC,4 fold
same,Increase of NE,[1]; mPFC,> 5 fold
same,"Reduction of DOPAC, maximal",[1]; mPFC,35–40%
same,"Extracellular 5-HT at the end of two hours, percent baseline","[1]; mPFC, baseline 100%",150%
same,"Extracellular 5HT, maximal, percent baseline","[1]; mPFC, baseline 100%",339%
same,"Extracellular DA at the end of two hours, percent baseline","[1]; mPFC, baseline 100%",122%
same,"Extracellular DA, maximal, percent baseline","[1]; mPFC, baseline 100%",394%
same,"Extracellular NE at the end of two hours, percent baseline","[1]; mPFC, baseline 100%",173%
same,"Extracellular NE, maximal, percent baseline","[1]; mPFC, baseline 100%",547%
same,Affinity for alpha adrenergic or beta adrenergic receptors subtypes,[2],did not show any appreciable affinity
same,Affinity for muscarinic receptor subtypes,[2],Lack of any affinity
same,"Affinity for opioid receptors, calcium channel and GABA receptor",[2],did not show any affinity
same,Ki,"[2]; dopamine and serotonin receptor subtypes other than D1, D5, 5HT2b, read-out: Ki at dopamine and serotonin receptor subtypes (generally)",> 10 µM
